# Measurements reported in patent publication US7825253B2, “2-aminoquinoline derivatives” (Hoffmann-La Roche Inc., priority 2006, dated 2010).
# pKi: −log10 of the molar value.
# System: not given
# Assay: not given
# Details: not given
row,melting point [°C],Compound
1,121.5,"COc1ccccc1CNc1ccc2c(-c3noc(C)n3)cccc2n1 [Example 150, (2-Methoxy-benzyl)-[5-(5-methyl-[1,2,4]oxadiazol-3-yl)-quinolin-2-yl]-amine]"
2,155,"COc1ccccc1CNc1ccc2c(C(=N)c3ccc(F)cc3)cccc2n1 [Example 136, {5-[(4-Fluoro-phenyl)-imino-methyl]-quinolin-2-yl}-(2-methoxy-benzyl)-amine]"
3,162.5,COc1ccccc1CNc1ccc2c(CNC(=O)c3ccc(F)cc3)cccc2n1 [Example 146]
4,173,"Cc1ccc(CNc2ccc3c(CNC(=O)c4ccc(F)cc4)cccc3n2)o1 [Example 126, 4-Fluoro-N-{2-[(5-methyl-furan-2-ylmethyl)-amino]-quinolin-5-ylmethyl}-benzamide]"

# Molecular target: T1, recombinant human 5-HT5A receptor (Homo sapiens, UniProt P47898)
# T1 construct: expressed in transfected cells; host or cells: Human Embryonic Kidney-EBNA (HEK-EBNA) cells, transient cDNA expression; membranes
# Assay: [3H]LSD radioligand binding assay
# Details: [3H]LSD approx. 1 nM; membranes from HEK-EBNA cells transiently expressing 5-HT5A; Ki from IC50 by Cheng-Prussoff
# Method: A [^3H]LSD radioligand binding assay was used to determine the affinity of the compounds for the recombinant human 5-HT5A receptor, in membranes from transiently (cDNA) expressed 5-HT5A receptors in Human Embryonic Kidney-EBNA (HEK-EBNA) cells. Assay buffer consisted of Tris (50 mM) buffer containing 1 mM EGTA, 10 mM MgCl2 (pH 7.4) and 10 μM pargyline. The binding assay was carried out in 96-well-plates in the presence of [^3H]LSD (approximately 1 nM), approximately 2 μg/well of membrane protein, and 0.5 mg of Ysi-poly-l-lysine SPA beads in a final volume of 200 μl of buffer. Non-specific binding was defined using methiothepin 2 μM. Compounds were tested at 10 concentrations. All assays were conducted in duplicate and repeated at least two times. Assay plates were incubated for 120 min at room temperature before centrifugation. Bound ligand was determined using a Packard Topcount scintillation counter. IC50 values were calculated using a non-linear curve fitting program and Ki values calculated using the Cheng-Prussoff equation.
# T1 sequence (P47898 whole entry): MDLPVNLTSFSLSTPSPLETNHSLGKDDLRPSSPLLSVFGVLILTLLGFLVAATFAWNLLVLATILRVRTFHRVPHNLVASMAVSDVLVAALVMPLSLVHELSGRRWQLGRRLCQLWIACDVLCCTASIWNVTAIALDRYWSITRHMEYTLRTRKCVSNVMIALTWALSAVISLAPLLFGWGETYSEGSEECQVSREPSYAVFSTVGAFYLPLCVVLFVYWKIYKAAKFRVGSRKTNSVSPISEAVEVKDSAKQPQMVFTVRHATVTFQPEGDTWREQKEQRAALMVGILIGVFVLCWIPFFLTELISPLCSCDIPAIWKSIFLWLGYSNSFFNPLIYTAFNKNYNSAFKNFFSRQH
row,pKi,Compound
1,7.45,"Cc1ccc(CNc2ccc3c(NCc4cnn[nH]4)cccc3n2)o1 [Example 115, N2-(5-Methyl-furan-2-ylmethyl)-N5-(3H-[1,2,3]triazol-4-ylmethyl)-quinoline-2,5-diamine]"
2,7.48,"FC(F)(F)Oc1ccccc1CNc1ccc2c(NCc3cccc4[nH]ccc34)cccc2n1 [Example 116, N5-(1H-Indol-4-ylmethyl)-N2-(2-trifluoromethoxy-benzyl)-quinoline-2,5-diamine]"
3,7.10,"Cc1cc2cccc(Nc3ccc4c(NS(=O)(=O)c5ccc(F)cc5)cccc4n3)c2o1 [Example 128, 4-Fluoro-N-[2-(2-methyl-benzofuran-7-ylamino)-quinolin-5-yl]-benzenesulfonamide]"
4,8.12,"COc1ccccc1CNc1ccc2c(NCc3ccccc3)cccc2n1 [Example 7, N5-Benzyl-N2-(2-methoxy-benzyl)-quinoline-2,5-diamine]"
5,7.92,"CC1Cc2cccc(Nc3ccc4c(NCc5cccc6[nH]ccc56)cccc4n3)c2O1 (stereo not drawn) [Example 140, N5-(1H-Indol-4-ylmethyl)-N2-(2-methyl-2,3-dihydro-benzofuran-7-yl)-quinoline-2,5-diamine]"
6,7.55,"Cc1ccc(CNc2ccc3c(Nc4cccc5cc[nH]c45)cccc3n2)o1 [Example 93, N5-(1H-Indol-7-yl)-N2-(5-methyl-furan-2-ylmethyl)-quinoline-2,5-diamine]"
7,7.72,"COc1ccccc1CNc1ccc2c(NS(=O)(=O)c3ccc(F)cc3)cccc2n1 [Example 61, 4-Fluoro-N-[2-(2-methoxy-benzylamino)-quinolin-5-yl]-benzenesulfonamide]"
8,7.63,"Cc1ccc(CNc2ccc3c(CNc4ccccc4)cccc3n2)o1 [Example 22, (5-Methyl-furan-2-ylmethyl)-(5-phenylaminomethyl-quinolin-2-yl)-amine]"
9,7.45,"O=S(=O)(Nc1cccc2nc(Nc3cccc4c3OCC4)ccc12)c1cc(F)cc(F)c1 [Example 139, N-[2-(2,3-Dihydro-benzofuran-7-ylamino)-quinolin-5-yl]-3,5-difluoro-benzenesulfonamide]"
10,7.01,"COc1cccc(OC)c1CNc1ccc2c(NCc3cccc4[nH]ccc34)cccc2n1 [Example 109, N2-(2,6-Dimethoxy-benzyl)-N5-(1H-indol-4-ylmethyl)-quinoline-2,5-diamine]"
11,7.47,"CSc1ccccc1CNc1ccc2c(NS(=O)(=O)c3ccc(F)cc3)cccc2n1 [Example 82, 4-Fluoro-N-[2-(2-methylsulfanyl-benzylamino)-quinolin-5-yl]-benzenesulfonamide]"
12,7.99,"COc1ccccc1CNc1ccc2c(NCc3ccccc3OC)cccc2n1 [Example 6, N2,N5-Bis-(2-methoxy-benzyl)-quinoline-2,5-diamine]"

# Further lines, the compound ahead of its results:
row,Compound,pKi
1,"COc1ccccc1CNc1ccc2c(C(=N)c3ccc(F)cc3)cccc2n1 [Example 136, {5-[(4-Fluoro-phenyl)-imino-methyl]-quinolin-2-yl}-(2-methoxy-benzyl)-amine]",7.45
2,"Cc1ccc(CNc2ccc3c(NS(=O)(=O)Nc4ccc(F)cc4)cccc3n2)o1 [Example 154, N-(2-{[(5-methyl-2-furyl)methyl]amino}quinolin-5-yl)-N′-(4-fluorophenyl)sulfamide]",7.59
3,"Cc1cc2cccc(Nc3ccc4c(NCc5cc(F)cc(F)c5)cccc4n3)c2o1 [Example 132, N5-(3,5-Difluoro-benzyl)-N2-(2-methyl-benzofuran-7-yl)-quinoline-2,5-diamine]",7.82
4,"Cc1nc[nH]c1CNc1cccc2nc(Nc3cccc(C4CC4)c3)ccc12 [Example 166, N2-(3-Cyclopropyl-phenyl)-N5-(5-methyl-3H-imidazol-4-ylmethyl)-quinoline-2,5-diamine]",7.47
5,"Cc1ccc(CNc2ccc3c(NCc4ccccn4)cccc3n2)o1 [Example 26, N2-(5-Methyl-furan-2-ylmethyl)-N5-pyridin-2-ylmethyl-quinoline-2,5-diamine]",7.68
6,"Cc1ccc(CNc2ccc3c(NCc4nccs4)cccc3n2)o1 [Example 100, N2-(5-Methyl-furan-2-ylmethyl)-N5-thiazol-2-ylmethyl-quinoline-2,5-diamine]",7.64
7,"COc1ccccc1CNc1ccc2c(NCc3cnc[nH]3)cccc2n1 [Example 101, N5-(3H-Imidazol-4-ylmethyl)-N2-(2-methoxy-benzyl)-quinoline-2,5-diamine]",7.84
8,"Cc1nc[nH]c1CNc1cccc2nc(Nc3cccc4c3OC(C)(C)C4)ccc12 [Example 149, N2-(2,2-Dimethyl-2,3-dihydro-benzofuran-7-yl)-N5-(5-methyl-3H-imidazol-4-ylmethyl)-quinoline-2,5-diamine]",8.40
9,"COc1ccccc1CNc1ccc2c(OCCS(=O)(=O)c3ccccc3)cccc2n1 [Example 84, [5-(2-Benzenesulfonyl-ethoxy)-quinolin-2-yl]-(2-methoxy-benzyl)-amine]",7.05
10,"CC1(C)Cc2cccc(Nc3ccc4c(NS(=O)(=O)c5cc(F)cc(F)c5)cccc4n3)c2O1 [Example 141, N-[2-(2,2-Dimethyl-2,3-dihydro-benzofuran-7-ylamino)-quinolin-5-yl]-3,5-difluoro-benzenesulfonamide]",7.66
11,COc1ccccc1CNc1ccc2c(CNC(=O)c3ccc(F)cc3)cccc2n1 [Example 146],7.07
12,"Cc1ccc(CNc2ccc3c(NCc4nc[nH]c4C)cccc3n2)o1 [Example 92, N2-(5-Methyl-furan-2-ylmethyl)-N5-(5-methyl-1H-imidazol-4-ylmethyl)-quinoline-2,5-diamine]",7.84
13,"COc1ccccc1CNc1ccc2c(CCc3cccnc3)cccc2n1 [Example 16, (2-Methoxy-benzyl)-[5-(2-pyridin-3-yl-ethyl)-quinolin-2-yl]-amine]",7.49
14,"Cc1ccc(CNc2ccc3c(NCc4ccc(F)cc4)cccc3n2)o1 [Example 20, N5-(4-Fluoro-benzyl)-N2-(5-methyl-furan-2-ylmethyl)-quinoline-2,5-diamine]",7.60
15,"Cc1ccc(CNc2ccc3c(Nc4ccc(Cl)cc4)cccc3n2)o1 [Example 51, N5-(4-Chloro-phenyl)-N2-(5-methyl-furan-2-ylmethyl)-quinoline-2,5-diamine]",8.04
16,"Cc1cccc(CNc2cccc3nc(NCc4ccc(C)o4)ccc23)n1 [Example 29, N2-(5-Methyl-furan-2-ylmethyl)-N5-(6-methyl-pyridin-2-ylmethyl)-quinoline-2,5-diamine]",7.76
17,"COc1cccc(OC)c1CNc1ccc2c(NCc3cccnc3)cccc2n1 [Example 99, N2-(2,6-Dimethoxy-benzyl)-N5-pyridin-3-ylmethyl-quinoline-2,5-diamine]",7.07
18,"O=S(=O)(Nc1cccc2nc(NCCOc3ccccc3)ccc12)c1cc(F)cc(F)c1 [Example 77, 3,5-Difluoro-N-[2-(2-phenoxy-ethylamino)-quinolin-5-yl]-benzenesulfonamide]",7.72
19,"Cc1ccc(CNc2ccc3c(NCc4cc(F)cc(F)c4)cccc3n2)o1 [Example 120, N5-(3,5-Difluoro-benzyl)-N2-(5-methyl-furan-2-ylmethyl)-quinoline-2,5-diamine]",8.07
20,"Cc1ccc(CNc2ccc3c(NCc4cccc5c4OCO5)cccc3n2)o1 [Example 103, N5-Benzo[1,3]dioxol-4-ylmethyl-N2-(5-methyl-furan-2-ylmethyl)-quinoline-2,5-diamine]",8.18
21,"Cc1ccc(CNc2ccc3c(CNc4cccnc4)cccc3n2)o1 [Example 21, (5-Methyl-furan-2-ylmethyl)-[5-(pyridin-3-ylaminomethyl)-quinolin-2-yl]-amine]",7.45
22,"Cc1ccc(CNc2ccc3c(NC4CCSc5ccccc54)cccc3n2)o1 (racemic) [Example 135, rac-N2-(5-Methyl-furan-2-ylmethyl)-N5-thiochroman-4-yl-quinoline-2,5-diamine]",7.77
23,"Cc1cc2cccc(Nc3ccc4c(NCc5cccnc5)cccc4n3)c2o1 [Example 129, N2-(2-Methyl-benzofuran-7-yl)-N5-pyridin-3-ylmethyl-quinoline-2,5-diamine]",7.80
24,"COc1ccccc1CNc1ccc2c(C(=O)c3ccc(F)cc3)cccc2n1 [Example 137, (4-Fluoro-phenyl)-[2-(2-methoxy-benzylamino)-quinolin-5-yl]-methanone]",7.29
25,"Cc1ccc(CNc2ccc3c(NS(=O)(=O)c4cc(F)cc(F)c4)cccc3n2)o1 [Example 60, 3,5-Difluoro-N-{2-[(5-methyl-furan-2-ylmethyl)-amino]-quinolin-5-yl}-benzenesulfonamide]",7.66
26,"Cc1ccc(CNc2ccc3c(CCc4ccccc4)cccc3n2)o1 [Example 17, (5-Methyl-furan-2-ylmethyl)-(5-phenethyl-quinolin-2-yl)-amine]",7.67
